The text below walks through data of US12102685B2, “Immodulator peptides covalently modified with small molecules” (priority 2020, dated 2024).

Experiment [1] can be described thus: FITC-PI(4)P1 binding to plate-bound peptide with calcium (x9A). On the procedure:
Immodulator peptides IM1, IM3 and IM5 (400 ng/well) in PBS were bound to streptavidin-coated 96-well plates at room temperature for 60 minutes, in the presence or absence of 500 uM calcium chloride. Each well also received 200 ng cold PPI plus 10 ng FITC-labeled PI(4,5)P2 or PI(4)P1. The tables below show the relative fluorescence (with/without calcium background) expressed as a percentage of the highest binder, FITC-PI(4,5)P2+cold PI(3,5)P2, which was 2,496 fluorescence units. Background binding without calcium was, in all cases, 200-300 fluorescence units.

A further experiment relates to A375 cells. Put plainly: A375 cell viability, CellTiterGlo (x10A). The settings on record: 72 hours. The format is cell-based. In a few lines:
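Peptides at 2 uM were added to A375 cells (2,000/well, DMEM with 10% FBS) 24 h after seeding, in quadruplicate. Following 72 h at 37 °C, CellTiterGlo luminescence was read after 10 min, reported as percent survival.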
In general terms: ATP-based viability assays read luminescence as a measure of living cells.

The target of experiment [2] is T1, AA111-228 DNA-binding domain of RXR-alpha (RXRa-DBD) (Homo sapiens, UniProt P19793).
T1 construct: purchased Abcam, Cambridge, MA
T1 sequence (P19793 111-228): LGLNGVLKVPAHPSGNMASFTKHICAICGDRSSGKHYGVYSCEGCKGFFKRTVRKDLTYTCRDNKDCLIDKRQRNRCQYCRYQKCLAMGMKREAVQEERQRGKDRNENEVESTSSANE
Description: Binding to RXRa-DBD (x3A). The settings on record: 1 ug/well RXRa-DBD, 800 ng/well SA488-labelled peptide; background subtracted. Here is the method: Binding of immodulator peptides to AA111-228 DNA-binding domain of RXR-alpha (RXRa-DBD). 1 ug/well recombinant RXRa-DBD (Abcam, Cambridge, MA) was adsorbed to wells of a 96-well plate for 60 minutes at RT, then blocked with 200 uL 1% BSA in PBS buffer overnight. Plate was washed and 800 ng/well Streptavidin-Alexa 488 conjugate (SA488)-labelled IM peptide was added. The plate was incubated for 60 min at room temperature, washed and counted in a standard fluorometer (excitation/emission 485/525 nm). Background (buffer alone) was subtracted.

Experiment [3] in a line: Iron-binding competition assay with labeled IM3 (x2E c). The note with it: 375 ng/well labeled IM3 plus 10x unlabeled peptide; no competing peptide = 100. On the procedure: Experiments were conducted by the procedure described above. Ferric iron-charged NTA-coated 96-well plates were used as described. 1 ug/well immodulator peptide complexed to Alexa-488-labeled streptavidin in PBS buffer was added (60 min at room temperature). The plate was washed and counted in a standard fluorometer (excitation/emission: 485/525 nm). The results (fluorescence) show improved iron-binding by the three peptides extended C-terminally by the AVD, (dA)VD, and FVS tripeptides. **p<0.01 vs IM3 control IM3: 200±29; IM4: 45±37**; IM5: 130±77; IM3AVD: 434±29**; IM3dAVD: 418±28**; IM3FVS: 371±33** • (c) Competition assay. The same procedure was used as the preceding experiment, except that 375 ng/well labeled IM3 peptide was used, plus 10× of the indicated unlabeled peptide. ‘No competing peptide’ control value was set to 100. *p<0.05 vs “no peptide” control Competing Peptide/Fluorescence • None: 100±38; IM4: 125±26; IM3: 63±27*; IM5: 40±14*; IM3AVD: 10±28* • (d) Competition assay. The same procedure was used as the preceding experiment, except that labeled IM3AVD peptide was used. **p<0.01 vs “no competing peptide” control • None: 100±9; IM4: 144±44; IM3: 35±16**; IM5: 30±19**; IM3AVD: 9±19** • (e) The same procedure was used as the preceding experiment, except that each peptide was labeled with Alexa-488-labeled streptavidin in PBS buffer and used separately. Binding to IM3 was set to =100. *p<0.05, **p<0.01 vs IM3 control. (Labeled Peptide/Fluorescence) IM1: 1.8±0.4**; IM2: 3.0±1.8**; IM3: 100.0±16.8; IM4: 7.2±1.7*; IM5: 86.7±6.4; IM6: 85.9±14.9; IM3AVD:137.7±11.8*; IM3dAVD:147.4±22.9*; IM3FVS: 101.5±10.5.

Experiment [4] in a line: Binding to Echelon PPI Arrays (x9B). Also noted: key: 0=no binding; 1=low binding; 2=medium binding; 3=high binding. The settings on record: 100 pmol PPI spot, colorimetric readout. From the text: Binding of immodulator peptides to Echelon PPI Arrays. PPI arrays were purchased from Echelon Biosciences (Sal Lake City, UT) and used according to the manufacturer's recommendations. Colorimetric readout from each 100 pmol PPI spot in the array is expressed as 0=no binding, 1=low binding, 2=medium binding and 3=high binding. […] In addition, IM3 and IM5 show slight binding to PI(3,4,5)P3.

Experiment [5] is described as follows: Iron binding of separately labeled peptides (x2E e). The settings on record: each peptide labeled separately; IM3 = 100; ferric iron. In a few lines: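 Fe3+-charged NTA-coated plates were incubated 60 min at room temperature with peptide complexed to Alexa-488-streptavidin in PBS, and fluorescence was read at 485/525 nm. Competition used 375 ng/well labeled IM3 (c) or IM3AVD (d) plus 10× unlabeled competitor, with no-competitor set to 100. Separately labeled peptides (e) were normalized to IM3 = 100.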

A short description of experiment [6]: Strength of binding to iron, plate assay (x2E b). The note with it: 1 ug/well peptide complexed to Alexa-488-streptavidin; ferric iron. A digest of the protocol: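 Streptavidin-Alexa-488-complexed peptides, some C-terminally extended by three amino acids, were added at 1 ug/well in PBS to ferric iron-charged NTA-coated plates for 60 min at room temperature. Plates were washed and read by fluorescence (485/525 nm).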

Structures are written as SMILES. Marks after values point to notes of the source that are not given here. Peptide text beside a SMILES is read from it.

Turning to `N=C(N)NCCC[C@H](NC(=O)CNC(=O)[C@H](CCCCN)NC(=O)[C@H](CO)NC(=O)[C@@H]1CCCN1C(=O)[C@H](CCCNC(=N)N)NC(=O)[C@H](CS)NC(=O)[C@H](CCC(N)=O)NC(=O)[C@H](CCCCN)NC(=O)[C@H](CCCCN)NC(=O)[C@H](CCCCN)NC(=O)[C@H](Cc1ccc(O)cc1)NC(=O)[C@H](Cc1ccccc1)NC(=O)CNC(=O)[C@H](CCCCN)NC(=O)[C@@H](N)CCCCN)C(=O)N[C@@H](CCCCN)C(=O)N[C@@H](CCCNC(=N)N)C(=O)NCC(=O)N[C@@H](Cc1ccccc1)C(=O)N[C@@H](CS)C(=O)N[C@@H](Cc1c[nH]c2ccccc12)C(=O)O` [IM3] (H-KKGFYKKKQCRPSKGRKRGFCW-OH; N-terminus and C-terminus assumed), the “relative fluorescence, FITC-PI(4)P1 bound” value was 1.2 percentage of the highest binder in experiment [1] (cold PPI: 3,4,5-P3); 2.4 percentage of the highest binder in experiment [1] (cold PPI: 3,4-P2); 5.6 percentage of the highest binder in experiment [1] (cold PPI: 3,5-P2); 2.5 percentage of the highest binder in experiment [1] (cold PPI: 3-P1); 0.1 percentage of the highest binder in experiment [1] (cold PPI: 4,5-P2); 2.4 percentage of the highest binder in experiment [1] (cold PPI: 4-P1). Further, the “relative fluorescence, FITC-PI(4)P1 bound” value in experiment [1] (cold PPI: 5-P1) is recorded as 1.9 percentage of the highest binder; in experiment [1] (cold PPI: None) it was 2.5 percentage of the highest binder. For the same compound, the “percent survival of A375 cells” value was 62.2** percent in the experiment with A375 cells (peptide 2 uM + Kin1400 4 uM (RIG-I agonist)) and 100.3% in the experiment on A375 cells (peptide 2 uM, Buffer). In addition, the fluorescence in experiment [2] was 6,572±129. For the same compound, in experiment [3], the “fluorescence of labeled IM3 with competing peptide” value is given as 63±27. Besides, in experiment [4], the “binding to PI spot” value was 0. The “binding to PI(3,4,5)P3 spot” value in experiment [4] was 1. Also, the “binding to PI(4)P1 spot” value in experiment [4] is given as 0. In addition, the “binding to PI(4,5)P2 spot” value in experiment [4] is given as 3. For the same compound, the “fluorescence of labeled peptide” value in experiment [5] came out at 100.0±16.8. In addition, the “fluorescence (iron binding)” value in experiment [6] was determined as 200±29.
